Measurements taken from patent publication US12435044B2, “Pyridazinone herbicides and pyridazinone intermediates used to prepare a herbicide” (FMC Corporation, priority 2018, dated 2025).

Assays:
Test in all cases: Test J pre-/postemergence, mixtures of Cpd. No. 20 with (b15C2)
Format in all cases: in vivo
[1] = system: giant foxtail (SETFA; Setaria faberi)
From the text: (§1) This test evaluated the effect of mixtures of Cpd. No. 20 with (b15C2) on several plant species. Seeds of plant species selected from corn (ZEAMD; Zea mays, cv. ‘Pioneer 1184’), soybean (GLXMA; Glycine max, cv. Pioneer 35T58), giant foxtail (SETFA; Setaria faberi), palmer amaranth (AMAPA; Amaranthus palmeri), common waterhemp (AMATU; Amaranthus rudis), mare's tail (ERICA; Conyza canadensis), and common ragweed (AMBEL; Ambrosia artemisiifolia) were planted in pots containing Tama Silt Loam soil and treated preemergence with a directed soil spray using test chemicals formulated in a non-phytotoxic solvent mixture which included a surfactant.
(§2) At the same time, plants selected from these crop and weed species were planted in pots containing Redi-Earth® planting medium (Scotts Company, 14111 Scottslawn Road, Marysville, Ohio 43041) comprising spaghnum peat moss, vermiculite, wetting agent and starter nutrients and treated postemergence with test chemicals formulated in the same manner. Plants ranged in height from 2 to 10 cm and were in the one- to two-leaf stage for the postemergence treatment. Treated plants and untreated controls were maintained in a greenhouse for approximately 14-21 d, after which time all treated plants were compared to untreated controls and visually evaluated for injury. Plant response ratings, summarized in Tables J1 & J2, are based on a 0 to 100 scale where 0 is no effect and 100 is complete control. A dash (-) response means no test result. Test results are presented as a mean of 4 reps.

[2] = system: palmer amaranth (AMAPA; Amaranthus palmeri)
From the text: as §1, §2

[3] = system: common ragweed (AMBEL; Ambrosia artemisiifolia)
From the text: as §1, §2

[4] = system: mare's tail (ERICA; Conyza canadensis)
From the text: as §1, §2

[5] = system: common waterhemp (AMATU; Amaranthus rudis)
From the text: as §1, §2

[6] = system: corn (ZEAMD; Zea mays, cv. ‘Pioneer 1184’)
From the text: as §1, §2

[7] = system: soybean (GLXMA; Glycine max, cv. Pioneer 35T58)
From the text: as §1, §2

O=C(CCC(F)(F)F)c1c(Cl)cccc1Oc1ncc(Cl)cn1 [(b15C2), 1-[2-chloro-6-[(5-chloro-2-pyrimidinyl)oxy]phenyl]-4,4,4-trifluoro-1-butanone, reference compound]
SETFA plant response rating, 0 to 100 scale ([1]; postemergence, 8 g a.i./ha): 5
SETFA plant response rating, 0 to 100 scale ([1]; postemergence, 16 g a.i./ha): 5
SETFA plant response rating, 0 to 100 scale ([1]; postemergence, 31 g a.i./ha): 8
SETFA plant response rating, 0 to 100 scale ([1]; postemergence, 62 g a.i./ha): 6
SETFA plant response rating, 0 to 100 scale ([1]; preemergence, 8 g a.i./ha): 8
SETFA plant response rating, 0 to 100 scale ([1]; preemergence, 16 g a.i./ha): 64
SETFA plant response rating, 0 to 100 scale ([1]; preemergence, 31 g a.i./ha): 95
SETFA plant response rating, 0 to 100 scale ([1]; preemergence, 62 g a.i./ha): 100
AMAPA plant response rating, 0 to 100 scale ([2]; postemergence, 8 g a.i./ha): 20
AMAPA plant response rating, 0 to 100 scale ([2]; postemergence, 16 g a.i./ha): 38
AMAPA plant response rating, 0 to 100 scale ([2]; postemergence, 31 g a.i./ha): 56
AMAPA plant response rating, 0 to 100 scale ([2]; postemergence, 62 g a.i./ha): 74
AMAPA plant response rating, 0 to 100 scale ([2]; preemergence, 8 g a.i./ha): 63
AMAPA plant response rating, 0 to 100 scale ([2]; preemergence, 16 g a.i./ha): 90
AMAPA plant response rating, 0 to 100 scale ([2]; preemergence, 31 g a.i./ha): 100
AMAPA plant response rating, 0 to 100 scale ([2]; preemergence, 62 g a.i./ha): 100
AMBEL plant response rating, 0 to 100 scale ([3]; postemergence, 8 g a.i./ha): 5
AMBEL plant response rating, 0 to 100 scale ([3]; postemergence, 16 g a.i./ha): 3
AMBEL plant response rating, 0 to 100 scale ([3]; postemergence, 31 g a.i./ha): 10
AMBEL plant response rating, 0 to 100 scale ([3]; postemergence, 62 g a.i./ha): 20
AMBEL plant response rating, 0 to 100 scale ([3]; preemergence, 8 g a.i./ha): 0
AMBEL plant response rating, 0 to 100 scale ([3]; preemergence, 16 g a.i./ha): 0
AMBEL plant response rating, 0 to 100 scale ([3]; preemergence, 31 g a.i./ha): 0
AMBEL plant response rating, 0 to 100 scale ([3]; preemergence, 62 g a.i./ha): 15
ERICA plant response rating, 0 to 100 scale ([4]; postemergence, 8 g a.i./ha): 0
ERICA plant response rating, 0 to 100 scale ([4]; postemergence, 16 g a.i./ha): 0
ERICA plant response rating, 0 to 100 scale ([4]; postemergence, 31 g a.i./ha): 0
ERICA plant response rating, 0 to 100 scale ([4]; postemergence, 62 g a.i./ha): 5
ERICA plant response rating, 0 to 100 scale ([4]; preemergence, 8 g a.i./ha): 0
ERICA plant response rating, 0 to 100 scale ([4]; preemergence, 16 g a.i./ha): 0
ERICA plant response rating, 0 to 100 scale ([4]; preemergence, 31 g a.i./ha): 0
ERICA plant response rating, 0 to 100 scale ([4]; preemergence, 62 g a.i./ha): 13
AMATU plant response rating, 0 to 100 scale ([5]; postemergence, 8 g a.i./ha): 43
AMATU plant response rating, 0 to 100 scale ([5]; postemergence, 16 g a.i./ha): 55
AMATU plant response rating, 0 to 100 scale ([5]; postemergence, 31 g a.i./ha): 75
AMATU plant response rating, 0 to 100 scale ([5]; postemergence, 62 g a.i./ha): 83
AMATU plant response rating, 0 to 100 scale ([5]; preemergence, 8 g a.i./ha): 20
AMATU plant response rating, 0 to 100 scale ([5]; preemergence, 16 g a.i./ha): 79
AMATU plant response rating, 0 to 100 scale ([5]; preemergence, 31 g a.i./ha): 100
AMATU plant response rating, 0 to 100 scale ([5]; preemergence, 62 g a.i./ha): 100
ZEAMD plant response rating, 0 to 100 scale ([6]; postemergence, 8 g a.i./ha): 3
ZEAMD plant response rating, 0 to 100 scale ([6]; postemergence, 16 g a.i./ha): 5
ZEAMD plant response rating, 0 to 100 scale ([6]; postemergence, 31 g a.i./ha): 9
ZEAMD plant response rating, 0 to 100 scale ([6]; postemergence, 62 g a.i./ha): 10
ZEAMD plant response rating, 0 to 100 scale ([6]; preemergence, 8 g a.i./ha): 0
ZEAMD plant response rating, 0 to 100 scale ([6]; preemergence, 16 g a.i./ha): 0
ZEAMD plant response rating, 0 to 100 scale ([6]; preemergence, 31 g a.i./ha): 0
ZEAMD plant response rating, 0 to 100 scale ([6]; preemergence, 62 g a.i./ha): 0
GLXMA plant response rating, 0 to 100 scale ([7]; postemergence, 8 g a.i./ha): 20
GLXMA plant response rating, 0 to 100 scale ([7]; postemergence, 16 g a.i./ha): 29
GLXMA plant response rating, 0 to 100 scale ([7]; postemergence, 31 g a.i./ha): 43
GLXMA plant response rating, 0 to 100 scale ([7]; postemergence, 62 g a.i./ha): 68
GLXMA plant response rating, 0 to 100 scale ([7]; preemergence, 8 g a.i./ha): 0
GLXMA plant response rating, 0 to 100 scale ([7]; preemergence, 16 g a.i./ha): 0
GLXMA plant response rating, 0 to 100 scale ([7]; preemergence, 31 g a.i./ha): 0
GLXMA plant response rating, 0 to 100 scale ([7]; preemergence, 62 g a.i./ha): 0
